Measurements reported in BindingDB's records for doi:10.1021/bi4011286 (University of Michigan, 2013).

Legend:
[1] = molecular target: T1, DNA primase (Bacillus anthracis, UniProt A0A6L8PXB3); assay: Quatitative Inhibition Analysis Assay; conditions: pH 8.8
T1 sequence (A0A6L8PXB3 whole entry): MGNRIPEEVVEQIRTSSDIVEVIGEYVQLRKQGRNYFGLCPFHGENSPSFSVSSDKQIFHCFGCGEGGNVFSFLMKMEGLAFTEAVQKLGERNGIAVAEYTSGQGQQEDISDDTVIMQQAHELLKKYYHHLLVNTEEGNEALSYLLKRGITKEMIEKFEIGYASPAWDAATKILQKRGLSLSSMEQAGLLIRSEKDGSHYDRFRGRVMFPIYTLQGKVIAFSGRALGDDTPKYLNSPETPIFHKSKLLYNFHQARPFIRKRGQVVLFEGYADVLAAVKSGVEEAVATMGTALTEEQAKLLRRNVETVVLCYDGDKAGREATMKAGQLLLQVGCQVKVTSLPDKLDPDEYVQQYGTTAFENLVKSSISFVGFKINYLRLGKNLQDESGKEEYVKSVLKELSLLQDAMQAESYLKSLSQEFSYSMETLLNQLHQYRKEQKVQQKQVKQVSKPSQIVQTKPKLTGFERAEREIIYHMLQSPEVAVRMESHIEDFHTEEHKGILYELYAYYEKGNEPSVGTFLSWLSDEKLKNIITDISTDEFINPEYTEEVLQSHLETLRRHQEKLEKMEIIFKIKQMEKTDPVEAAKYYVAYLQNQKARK
Protocol: (§1) The reaction mixture contained DNA (1.25 uM or as specified), NTP (110 uM or as specified), 50 mM NaCl, 150 mM potassium glutamate, buffer [20 mM CAPS (pH 8.8) or as specified], and divalent metals (2 mM Mn2+ and 1 mM Mg2+). The assay was performed in 96-well plates with 4 uM Ba DnaG.

[2] = molecular target: T2, DNA primase (Mycobacterium tuberculosis (strain CDC 1551 / Oshkosh), UniProt P9WNW0); assay: Quatitative Inhibition Analysis Assay; conditions: pH 8.8
T2 sequence (P9WNW0 whole entry): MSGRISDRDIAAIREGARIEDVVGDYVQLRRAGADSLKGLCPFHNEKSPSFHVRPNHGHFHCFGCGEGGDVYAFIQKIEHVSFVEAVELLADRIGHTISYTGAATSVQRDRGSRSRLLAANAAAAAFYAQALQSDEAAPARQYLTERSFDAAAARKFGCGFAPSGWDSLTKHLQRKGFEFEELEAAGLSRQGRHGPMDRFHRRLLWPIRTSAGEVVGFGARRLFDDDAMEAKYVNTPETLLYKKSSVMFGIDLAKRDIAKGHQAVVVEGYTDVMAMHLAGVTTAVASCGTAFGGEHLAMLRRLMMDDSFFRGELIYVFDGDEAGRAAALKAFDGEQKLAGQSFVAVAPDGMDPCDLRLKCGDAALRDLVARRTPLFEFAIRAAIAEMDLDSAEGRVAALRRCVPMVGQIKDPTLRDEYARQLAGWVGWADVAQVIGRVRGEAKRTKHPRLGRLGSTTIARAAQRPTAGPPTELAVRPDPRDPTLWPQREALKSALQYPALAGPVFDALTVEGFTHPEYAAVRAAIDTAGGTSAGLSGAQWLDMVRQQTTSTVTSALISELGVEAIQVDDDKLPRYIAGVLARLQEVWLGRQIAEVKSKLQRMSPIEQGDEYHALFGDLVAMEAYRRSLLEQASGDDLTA
Protocol: as §1

SMILES | IC50 [1] [µM] | IC50 [2] [µM]
COc1cccc2c1C(=O)c1c(O)c3c(c(O)c1C2=O)C[C@@](O)(C(=O)CO)C[C@@H]3O[C@H]1C[C@H](N)[C@H](O)[C@H](C)O1 [Adriamycin] | 4.4 | 9.3
CCN(CC)CCOc1ccc2c(c1)C(=O)c1cc(OCCN(CC)CC)ccc1-2 [Amixin IC] | 7.1 | 69
O=c1oc2c(O)c(O)cc3c(=O)oc4c(O)c(O)cc1c4c23 [Elagic Acid] | > 100 | –
C[C@H]1COc2c(N3CCN(C)CC3)c(F)cc3c(=O)c(C(=O)O)cn1c23 [Levaquin] | 75 | –
Cc1ccc(C(=O)Nc2ccc(S(=O)(=O)O)c3cc(S(=O)(=O)O)cc(S(=O)(=O)O)c23)cc1NC(=O)c1cccc(NC(=O)Nc2cccc(C(=O)Nc3cc(C(=O)Nc4ccc(S(=O)(=O)O)c5cc(S(=O)(=O)O)cc(S(=O)(=O)O)c45)ccc3C)c2)c1 [Suramin hexasodium] | 8.2 | –
